Source: PubChem BioAssay AID179 (DTP/NCI, 2004)
pEC50, pIC50: −log10 of the molar value. The source made the active and inactive calls.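 The calls were made as follows: active = compounds giving half or more protection of infected cells from virus-caused growth loss, again on retest; inactive = the rest.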 Where a SMILES comes first, the peptide text is derived from it. Bridges are numbered along the chain shown (N, C = ends). Roman numbers before positions name the chains, in order. [ ]: non-standard residue; d: D form. The star is where a group is joined. Tyr(3-Br) = N[C@@H](Cc1ccc(O)c(Br)c1)C(=O)O; Boc = CC(C)(C)OC(=O)*; Bz = O=C(c1ccccc1)*

Test system: CEM cells HIV-1 protection, formazan growth assay
Assay: NCI AIDS Antiviral Assay
Conditions: for pIC50: measured here: growth of uninfected CEM cells
In short: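 CEM (human) cells, HIV-1 infected vs uninfected, 5-point dosing, formazan growth read-out. Retest threshold 50% protection.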

COC(=O)c1ccc(NCC2=CC(=O)c3ccccc3C2=O)cc1
pEC50: < 3.70 | pIC50: 5.68

CCC1=C(C)c2cc3[n-]c(cc4nc(c(C=O)c5[n-]c(cc1n2)c(C)c5CC)C(C)=C4CC)c(C)c3CC.[Ni+2]
pEC50: < 4.30 | pIC50: < 4.30

C=CC1=CSNN1
pEC50: < 3.36 | pIC50: 3.46

CN(C)c1ccc(N=Nc2cccc3ncccc23)cc1
pEC50: < 3.70 | pIC50: 4.14

C/C=C1\CN(C)C[C@H]2Cc3c(n(OC)c4ccccc34)C(=O)C[C@@H]12
pEC50: < 4.62 | pIC50: < 4.62

Cc1cccc(NC(=S)Nc2ccccc2Cl)n1
pEC50: 3.85 | pIC50: < 3.70

CNS(=O)(=O)NN(C)S(=O)(=O)c1ccc(OC)cc1
pEC50: < 3.39 | pIC50: 3.98

CCOC(=O)NC(=O)c1cn(C2CCCCC2)c(=O)n(C)c1=O
pEC50: < 4.09 | pIC50: < 4.09

CC1(C)OC(=O)C(=Cc2ccccc2Cl)C(=O)O1
pEC50: < 3.31 | pIC50: 5.61

C=C(CN(C)C)C(=O)c1ccccc1[N+](=O)[O-]
pEC50: < 3.70 | pIC50: 4.97

CCOP(=O)(OCC)C(C)(CC)NC1=NC(C(F)(F)F)(C(F)(F)F)NC(=O)N1 (stereo not drawn)
pEC50: < 3.70 | pIC50: < 3.70

CCCC(CC)c1c(O)c(O)c(C(CC)CCC)c(C(CC)CCC)c1C(CC)CCC (stereo not drawn)
pEC50: < 4.00 | pIC50: 4.81

O=C(N/C(=C\c1c(O)ccc2ccccc12)c1nc2ccccc2[nH]1)c1ccccc1
pEC50: < 4.65 | pIC50: < 4.65

Nc1ncnc2c1ccn2C/C=C/CO
pEC50: < 3.70 | pIC50: < 3.70

Nc1nc(Cl)cc(Nc2ccc3c(c2)CCC3)n1
pEC50: < 3.70 | pIC50: 4.65

COC(=O)c1cc(C(=CCCCCCBr)c2cc(Cl)c(OC)c(C(=O)OC)c2)cc(Cl)c1OC
pEC50: < 5.32 | pIC50: < 5.32

CC(C)(C)C(=O)C(C#N)C(=O)C(C)(C)C
pEC50: < 3.70 | pIC50: < 3.70

CC(=O)Nc1ccc(OCC(O)CO)cc1 (stereo not drawn)
pEC50: < 2.95 | pIC50: 3.08

CC(=O)/C(=C/N1CCNC1=S)C(=O)Nc1ccc([N+](=O)[O-])cc1
pEC50: < 3.70 | pIC50: 4.36

Cc1cc(=O)n(-c2ccccc2)c(=O)n1-c1nc2ccccc2[nH]1
pEC50: < 3.95 | pIC50: 4.19

Cc1nnc(Nc2ccc(Cl)cc2)o1
pEC50: < 3.70 | pIC50: < 3.70

O=C(O)c1ccccc1O.OC1CCCC2CCC[N-]C12.[Cu+] (stereo not drawn)
pEC50: < 3.70 | pIC50: 6.22

CCN(CC)CCNc1ccc(CO)c2oc3ccc(OS(=O)(=O)c4ccc(C)cc4)cc3c(=O)c12
pEC50: < 4.29 | pIC50: 5.05

CCc1cccc(C(C)C)c1C1C(=O)C(=O)N(c2nc3ccccc3s2)C(=O)C1=O
outcome: inactive

COc1cccc(/C=N/[N-]C(N)=O)c1[O-].[Ni+2].[OH3+].c1ccc(-c2ccccn2)nc1
outcome: inactive

O=[N+]([O-])c1ccc(-c2nnc(C34CC5CC(CC(C5)C3)C4)o2)cc1
pEC50: < 3.70 | pIC50: < 3.70

CCOC(=O)c1c2ccccc2n2c(=O)n(C)nnc12
pEC50: < 3.70 | pIC50: < 3.70

CCOC(=O)CC(NC(=O)c1[nH]cnc1/N=N/N(C)C)C(=O)OCC (stereo not drawn)
pEC50: < 3.15 | pIC50: < 3.15

C=COCCCOc1ccccc1
pEC50: < 3.70 | pIC50: < 3.70

O=S(=O)(SS(=O)(=O)c1ccc(Cl)cc1)c1ccc(Cl)cc1
pEC50: < 4.03 | pIC50: < 4.03

COC(=O)C(CSSCC(NC(=O)CNC(=O)c1ccccc1)C(=O)OC)NC(=O)CNC(=O)c1ccccc1 (stereo not drawn) (I: Bz-Gly-Cys-OMe / II: Bz-Gly-Cys-OMe; disulfide I:2-II:2; configuration not given here)
pEC50: < 3.93 | pIC50: 4.41

COc1cc2c(cc1O)C(C)Cc1cc3c(cc1N(C)CC2)OCO3 (stereo not drawn)
pEC50: < 3.93 | pIC50: 5.65

Nc1ncc(C=O)c(NCC2(CO)CCC2)n1
pEC50: < 3.70 | pIC50: 4.68

COCC(O)COn1c(=O)c(C#N)[n+]([O-])c2ccccc21 (stereo not drawn)
pEC50: < 3.70 | pIC50: 4.52

CN1C(=S)N2CCCCCCCC2c2c1nc(CCl)[nH]c2=O (stereo not drawn)
pEC50: < 3.70 | pIC50: 5.16

COC(=O)[C@H](Cc1ccc(O)c(Br)c1)NC(=O)[C@H](Cc1ccc(O)cc1)NC(=O)OC(C)(C)C (Boc-Tyr-[Tyr(3-Br)]-OMe)
pEC50: < 3.70 | pIC50: 4.46

CC(O)C(O)C(N)CC=O (stereo not drawn)
pEC50: < 3.70 | pIC50: < 3.70

O=C(CC(C(=O)c1ccoc1)c1ccco1)c1ccco1 (stereo not drawn)
pEC50: < 3.70 | pIC50: 3.82

Cc1cc2c(=O)c3ccccc3oc2c(C#N)c1C
pEC50: < 4.70 | pIC50: < 4.70

CCOC(=O)C1=C(Nc2cccc(OC)c2)OCC1=O
pEC50: < 3.70 | pIC50: < 3.70

CC(C)(C)[Si](C)(C)OCC#C[C@@]1(O)CCCCC1CC(Sc1ccccc1)Sc1ccccc1 (stereo partly drawn)
pEC50: < 3.70 | pIC50: 4.90

COc1ccc2c(c1)OCC1(O)Cc3ccccc3OC21 (stereo not drawn)
pEC50: < 3.70 | pIC50: 3.97

CCOC(=O)O/C(=C\c1ccc(OC)cc1)c1c(OC(=O)OCC)n(C(=O)OCC)c2ccccc12
pEC50: < 3.70 | pIC50: 5.18

CC(C)(CCl)NC(=O)c1cccc(C(=O)NC(C)(C)CCl)n1
pEC50: < 4.54 | pIC50: < 4.54

S=c1sscc1-c1ccccc1
pEC50: < 3.70 | pIC50: 3.73

COc1cc(CC(=O)O)c(C(=O)c2ccc(C#N)cc2)cc1OC
pEC50: < 3.70 | pIC50: < 3.70

C=CC1=CC(C)C[C@]1(O)C(=O)OC (stereo partly drawn)
pEC50: < 2.86 | pIC50: 3.15

COc1cc(C2C(Cl)C(=O)N2NC(=O)c2ccccc2O)ccc1O (stereo not drawn)
pEC50: < 4.56 | pIC50: < 4.56

C=C(Br)CNC(=O)Nc1ccccn1
pEC50: < 3.70 | pIC50: < 3.70

COc1ccccc1CNCc1nc2ccccc2[nH]1
pEC50: < 3.70 | pIC50: 3.81

O=C1CSc2nc3ccccc3n2/C=N\N1
pEC50: < 3.70 | pIC50: < 3.70

CCC(C(=O)c1ccccc1)C(CCCC(=O)Nc1c(C)cccc1C)N=O (stereo not drawn)
pEC50: < 3.18 | pIC50: 3.45

CCCC1(C)OC(=O)C(c2ccccc2)O1 (stereo not drawn)
pEC50: < 3.70 | pIC50: < 3.70

C/C(CC(O)(/C=N/O)c1ccccc1)=N/O (stereo not drawn)
pEC50: < 3.70 | pIC50: < 3.70

COc1ccc2c(c1)N1CCc3cc(OC)c(OC)cc3C1C2 (stereo not drawn)
outcome: inactive

O=C1CCC[C@]2(C1)Cc1ccccc1N2
pEC50: < 3.33 | pIC50: 3.54

COc1ccc2c(c1)Oc1cc(O)ccc1[C@H]2c1ccccc1C(=O)NC(C)c1ccccc1 (stereo partly drawn)
pEC50: < 4.80 | pIC50: 4.86

CC(=O)n1c2ccc(Br)cc2c2nc3ccccc3nc21
pEC50: < 3.70 | pIC50: < 3.70

CC1(C)OC(=O)C(C#N)=C1/C=C1\OC(=O)c2ccccc21
pEC50: < 3.75 | pIC50: 4.28

C(=NCCSSCCN=Cc1ccccc1)c1ccccc1
pEC50: < 3.70 | pIC50: 4.41

CS(=O)(=O)Oc1nn2c(OS(C)(=O)=O)nnc2s1
pEC50: < 3.70 | pIC50: 4.54

Cc1sc2nc(N(C)C)oc(=O)c2c1C
pEC50: < 3.70 | pIC50: 4.12

COc1cc(C(c2ccc(N(Cc3ccccc3)Cc3ccccc3)cc2NC(C)=O)c2ccc(N(Cc3ccccc3)Cc3ccccc3)cc2NC(C)=O)ccc1O
pEC50: < 3.70 | pIC50: < 3.70

C/C(=N\NC(=S)N(C)CCN(C)C(=S)N/N=C(\C)c1ccccn1)c1ccccn1
pEC50: < 3.70 | pIC50: 5.61

COc1ccc2c3c([nH]c2c1[N+](=O)[O-])C(C)N(Cc1ccccc1)CC3 (stereo not drawn)
outcome: inactive

COC(=O)C1CCCC2(C1)OCCO2 (stereo not drawn)
pEC50: < 3.60 | pIC50: < 3.60
